According to patent US4769250A, “Antracycline antineoplastic agents encapsulated in phospholipid vesicle particles and methods for using same for tumor therapy” (priority 1987, dated 1988):

Columns and labels:
[1] = binding to distearoyl phosphatidylglycerol; read-out: binding constant; cited from earlier work
[2] = toxicity determined by survival in tumor-bearing mice; format: in vivo
DNA = conditions: binding to DNA; read-out: affinity for binding to DNA in a cell (converted); cited from earlier work
[3] = system: P-1798 solid lymphosarcoma; test: single dose chemotherapeutic efficacy, intradermal P-1798 solid lymphosarcoma; format: in vivo, mice; conditions: 20 mg/kg single dose
Method: In the first investigation, groups of 10 mice received free daunorubicin or daunorubicin-vesicles in 20 mg/kg single doses at three or four days following tumor implantation. Tumors were measured using calipers and the survival over time of treated and control mice was recorded. Controls consisted of injections of a 5% dextrose in water solution at 2 ml/20 gm doses.
Representative results of these investigations are shown in FIG. 5 for treatment commencing on day 3 after tumor implantation. Typically, with tumor metastasis, mice with tumors die within 14-17 days. […] The median life span of mice injected with daunorubicin-vesicles was 21 days.

[4] = children highly susceptible (Mosijezuk et al.); cited from earlier work

SMILES	Kd [1] [µM]	toxicity induced deaths by dose ([2]; 10, 20 and 30 mg/kg)	mortality ([2]; mouse, in vivo, 30 mg/kg, read-out: toxicity induced deaths) [%]	Kd (DNA) [µM]	inhibition of tumor growth vs untreated controls [3]	cardiotoxicity [4]
COc1cccc2c1C(=O)c1c(O)c3c(c(O)c1C2=O)C[C@@](O)(C(C)=O)C[C@@H]3O[C@H]1C[C@H](N)[C@H](O)[C@H](C)O1 [daunorubicin]	~10	toxicity induced deaths occurred only for the high dose unencapsulated daunorubicin (30 mg/kg)	100	~0.5	significant inhibition of tumor growth	
COc1cccc2c1C(=O)c1c(O)c3c(c(O)c1C2=O)C[C@@](O)(C(=O)CO)C[C@@H]3O[C@H]1C[C@H](N)[C@H](O)[C@H](C)O1 [doxorubicin]						congestive heart failure
